The record followed here is patent US11046699B2, “Pyrazolo-pyrimidin-amino-cycloalkyl compounds and their therapeutic uses” (RAPT THERAPEUTICS, INC., priority 2018, dated 2021).

This assay deals with GCN2 (Homo sapiens, UniProt Q9P2K8). Kind of assay: GCN2 enzymatic endpoint assay: phosphorylation of GFP-eIF2α measured by TR-FRET (Lanthascreen). Format: biochemical. In a few lines: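 Phosphorylated eIF2α read by Lanthascreen TR-FRET (acceptor 520 nm over donor 495 nm) after EDTA stop. The reaction ran 90 min at room temperature on 80 nM GFP-eIF2α with 2 μM ATP.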
Sequence of GCN2 (Q9P2K8 whole entry): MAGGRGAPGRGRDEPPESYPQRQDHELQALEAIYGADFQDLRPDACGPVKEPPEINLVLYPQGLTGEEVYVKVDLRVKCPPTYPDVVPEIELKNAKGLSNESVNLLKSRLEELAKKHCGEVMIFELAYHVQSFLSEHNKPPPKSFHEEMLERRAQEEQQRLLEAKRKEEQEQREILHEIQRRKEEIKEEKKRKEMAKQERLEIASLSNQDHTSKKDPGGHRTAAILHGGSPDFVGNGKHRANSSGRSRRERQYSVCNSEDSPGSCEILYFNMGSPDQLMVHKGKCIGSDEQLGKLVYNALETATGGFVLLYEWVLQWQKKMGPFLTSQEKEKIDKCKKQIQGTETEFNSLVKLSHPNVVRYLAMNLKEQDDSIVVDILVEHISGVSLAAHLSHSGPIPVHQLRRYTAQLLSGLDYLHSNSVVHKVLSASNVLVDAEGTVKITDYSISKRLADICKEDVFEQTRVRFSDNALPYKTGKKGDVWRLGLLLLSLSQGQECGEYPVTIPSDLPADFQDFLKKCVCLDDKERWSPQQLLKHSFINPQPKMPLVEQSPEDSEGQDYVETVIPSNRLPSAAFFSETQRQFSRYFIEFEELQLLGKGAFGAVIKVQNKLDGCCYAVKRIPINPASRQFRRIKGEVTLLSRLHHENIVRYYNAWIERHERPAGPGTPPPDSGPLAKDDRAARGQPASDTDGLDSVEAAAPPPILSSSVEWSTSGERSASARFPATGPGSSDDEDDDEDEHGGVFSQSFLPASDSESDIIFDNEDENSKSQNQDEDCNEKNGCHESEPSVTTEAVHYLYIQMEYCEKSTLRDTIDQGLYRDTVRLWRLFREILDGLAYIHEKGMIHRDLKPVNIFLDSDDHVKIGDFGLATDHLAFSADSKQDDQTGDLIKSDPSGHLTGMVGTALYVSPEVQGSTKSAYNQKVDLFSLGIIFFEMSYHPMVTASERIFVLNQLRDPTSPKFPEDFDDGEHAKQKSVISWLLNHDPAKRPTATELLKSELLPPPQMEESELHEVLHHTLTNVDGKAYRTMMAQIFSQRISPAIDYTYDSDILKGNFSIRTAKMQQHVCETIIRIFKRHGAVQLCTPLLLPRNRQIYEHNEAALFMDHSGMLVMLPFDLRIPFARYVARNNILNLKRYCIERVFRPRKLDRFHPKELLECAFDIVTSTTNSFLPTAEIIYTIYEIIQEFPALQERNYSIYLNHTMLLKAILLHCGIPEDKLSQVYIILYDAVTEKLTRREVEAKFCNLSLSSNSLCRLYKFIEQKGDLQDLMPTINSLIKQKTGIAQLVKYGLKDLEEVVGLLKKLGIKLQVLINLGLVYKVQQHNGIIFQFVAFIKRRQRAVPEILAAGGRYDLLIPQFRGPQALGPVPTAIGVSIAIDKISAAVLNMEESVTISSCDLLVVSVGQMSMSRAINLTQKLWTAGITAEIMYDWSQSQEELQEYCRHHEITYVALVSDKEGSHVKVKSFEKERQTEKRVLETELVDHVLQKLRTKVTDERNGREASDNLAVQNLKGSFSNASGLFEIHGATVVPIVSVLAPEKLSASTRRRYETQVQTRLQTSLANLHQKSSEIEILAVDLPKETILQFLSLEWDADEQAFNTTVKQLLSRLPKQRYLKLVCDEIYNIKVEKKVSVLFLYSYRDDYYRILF
For orientation: In TR-FRET formats the signal depends on donor and acceptor labels being close together.

The mark [1] stands for this setting: tested as described in Example 77, compound and/or hydrochloride, dihydrochloride or trifluoroacetic acid salt, read-out: IC 50 Activity.

Each structure is given as a SMILES string. Read-outs that look alike come from different tables or passages of the source.

As for `O=C(N[C@@H]1CCNC[C@H]1F)[C@@H]1CC[C@@H](Nc2ncc3c(Br)nn(-c4cc(F)c5ncccc5c4)c3n2)C1` [(1R,3R)-3-((3-bromo-1-(8-fluoroquinolin-6-yl)-1H-pyrazolo[3,4-d]pyrimidin-6-yl)amino)-N-((3R,4R)-3-fluoropiperidin-4-yl)cyclo-pentane-1-carboxamide], under setting [1], the IC50 was 25 to 200 nM.
Regarding `CNC(=O)[C@]1(C)CC[C@@H](Nc2ncc3c(Br)nn(-c4cc(NC(=O)CCN)c5ncccc5c4)c3n2)C1` [(1R,3R)-3-[[1-[8-(3-aminopropanoylamino)-6-quinolyl]-3-bromo-pyrazolo[3,4-d]pyrimidin-6-yl]amino]-N,1-dimethyl-cyclopentanecarboxamide], the IC50 under setting [1] is below 25 nM.
Regarding `Cc1nnc(-c2ccc(-n3nc(Br)c4cnc(N[C@@H]5CC[C@@H](NC(=O)C(C)C)C5)nc43)cc2CCC#N)s1` [N-[(1R,3R)-3-[[3-bromo-1-[3-(2-cyanoethyl)-4-(5-methyl-1,3,4-thiadiazol-2-yl)phenyl]pyrazolo[3,4-d]pyrimidin-6-yl]amino]cyclopentyl]-2-methyl-propanamide], the IC50 under setting [1] is 500 to 1000 nM.
On to `COC[C@H](C)NC(=O)[C@@H]1CC[C@@H](Nc2ncc3c(Br)nn(-c4ccc5ncccc5c4)c3n2)C1` [(1R,3R)-3-((3-bromo-1-(quinolin-6-yl)-1H-pyrazolo[3,4-d]pyrimidin-6-yl)amino)-N-((S)-1-methoxypropan-2-yl)cyclopentane-1-carboxamide], for which, under setting [1], the IC50 fell in the range of 25 to 200 nM.
With `Cc1nnc(-c2ccc(-n3nc(Br)c4cnc(N[C@@H]5CC[C@@](C)(C(=O)NC6CC6)C5)nc43)cc2)s1` [(1R,3R)-3-[[3-bromo-1-[4-(5-methyl-1,3,4-thiadiazol-2-yl)phenyl]pyrazolo[3,4-d]pyrimidin-6-yl]amino]-N-cyclopropyl-1-methyl-cyclopentanecarboxamide], the IC50 under setting [1] was 25 to 200 nM.
The same measure, in the same setting: with `CNC(=O)C1(C)CC[C@@H](Nc2ncc3c(Br)nn(-c4ccc5cnc(OC)cc5c4)c3n2)C1` (stereo partly drawn) [(3R)-3-[[3-bromo-1-(3-methoxy-6-isoquinolyl)pyrazolo[3,4-d]pyrimidin-6-yl]amino]-N,1-dimethyl-cyclopentane-carboxamide] the figure was 25 to 200 nM.
`CNC(=O)[C@]1(C)CC[C@@H](Nc2ncc3c(Br)nn(-c4ccc(-c5ccn(C)n5)cc4)c3n2)C1` [(1R,3R)-3-[[3-bromo-1-[4-(1-methyl-pyrazol-3-yl)phenyl]pyrazolo[3,4-d]pyrimidin-6-yl]amino]-N,1-dimethyl-cyclopentanecarboxamide]: the IC50 under setting [1] fell in the range of 25 to 200 nM.
For `CNC(=O)[C@]1(C)CC[C@@H](Nc2ncc3c(Br)nn(-c4cc(CN5C(=O)CCC5=O)c5ncccc5c4)c3n2)C1` [(1R,3R)-3-[[3-bromo-1-[8-[(2,5-dioxo-pyrrolidin-1-yl)methyl]-6-quinolyl]pyrazolo[3,4-d]pyrimidin-6-yl]amino]-N,1-dimethyl-cyclopentanecarboxamide], the IC50 under setting [1] lay in the range of 25 to 200 nM.
`O=C([C@@H]1CC[C@@H](Nc2ncc3c(Br)nn(-c4ccc5ncccc5c4)c3n2)C1)N1CCC(O)(C(F)(F)F)CC1` [((1R,3R)-3-((3-bromo-1-(quinolin-6-yl)-1H-pyrazolo[3,4-d]pyrimidin-6-yl)amino)cyclo-pentyl)(4-hydroxy-4-(trifluoromethyl)piperidin-1-yl)methanone]: under setting [1], the IC50 is 200 to 500 nM.
For `CNC(=O)[C@]1(C)CC[C@@H](Nc2ncc3c(Br)nn(-c4cc(Cl)cc(OCC5(F)CNC5)c4)c3n2)C1` [(1R,3R)-3-[[3-bromo-1-[3-chloro-5-[(3-fluoroazetidin-3-yl)methoxy]phenyl]pyrazolo[3,4-d]pyrimidin-6-yl]amino]-N,1-dimethyl-cyclopentanecarboxamide], the IC50 under setting [1] was below 25 nM.
Regarding `CN(CCNC(=O)[C@@H]1CC[C@@H](Nc2ncc3c(Br)nn(-c4ccc5ncccc5c4)c3n2)C1)CC(=O)O` [N-(2-((1R,3R)-3-((3-bromo-1-(quinolin-6-yl)-1H-pyrazolo[3,4-d]pyrimidin-6-yl)amino)cyclopentane-1-carboxamido)ethyl)-N-methylglycine], the IC50 under setting [1] was 25 to 200 nM.
Take `CC[C@@]1(C(=O)NC)CC[C@@H](Nc2ncc3c(Br)nn(-c4cc(F)c5ncccc5c4)c3n2)C1` [(1R,3R)-3-[[3-bromo-1-(8-fluoro-6-quinolyl)pyrazolo[3,4-d]pyrimidin-6-yl]amino]-1-ethyl-N-methyl-cyclopentanecarboxamide]: the IC50 under setting [1] was below 25 nM.
For `CNC(=O)[C@]1(C)CC[C@@H](Nc2ncc3c(Br)nn(-c4cc(Cl)cc(CNS(C)(=O)=O)c4)c3n2)C1` [(1R,3R)-3-[[3-bromo-1-[3-chloro-5-(methanesulfonamidomethyl)phenyl]pyrazolo[3,4-d]pyrimidin-6-yl]amino]-N,1-dimethyl-cyclopentanecarboxamide], the IC50 under setting [1] is 25 to 200 nM.
For the molecule `CNC(=O)[C@]1(C)CC[C@@H](Nc2ncc3c(Br)nn(-c4ccc5c(c4)SCC(=O)N5C)c3n2)C1` [(1R,3R)-3-[[3-bromo-1-(4-methyl-3-oxo-1,4-benzothiazin-7-yl)pyrazolo[3,4-d]pyrimidin-6-yl]amino]-N,1-dimethyl-cyclopentanecarboxamide], under setting [1], the IC50 was in the range of 25 to 200 nM.
Still for that read-out and setting: as for `CNC(=O)[C@]1(C)CCC(Nc2ncc3c(Br)nn(-c4cnc(-c5nnc(C)s5)c(Cl)c4)c3n2)C1` (stereo partly drawn) [(1R)-3-[[3-bromo-1-[5-chloro-6-(5-methyl-1,3,4-thiadiazol-2-yl)-3-pyridyl]pyrazolo [3,4-d]pyrimidin-6-yl]amino]-N,1-dimethyl-cyclopentanecarboxamide], the figure is 25 to 200 nM; as for `O=C([C@@H]1CC[C@@H](Nc2ncc3c(Br)nn(-c4ccc5ncccc5c4)c3n2)C1)N1CC2CCC(C1)O2` [(8-oxa-3-azabicyclo[3.2.1]octan-3-yl)((1R,3R)-3-((3-bromo-1-(quinolin-6-yl)-1H-pyrazolo [3,4-d]pyrimidin-6-yl)amino)cyclopentyl) methanone], 25 to 200 nM; as for `Cc1nnc(-c2ccc(-n3nc(Br)c4cnc(N[C@@H]5CCC(C)(C(=O)N6CCNCC6)C5)nc43)cc2)o1` (stereo partly drawn) [[(3R)-3-[[3-bromo-1-[4-(5-methyl-1,3,4-oxadiazol-2-yl)phenyl]pyrazolo[3,4-d]pyrimidin-6-yl]amino]-1-methyl-cyclo-pentyl]-piperazin-1-yl-methanone], 25 to 200 nM.
Same read-out and setting: with `CNC(=O)[C@]1(C)CC[C@@H](Nc2ncc3c(Br)nn(-c4cc(CN)c5nccnc5c4)c3n2)C1` [(1R,3R)-3-[[1-[8-(aminomethyl)quinoxalin-6-yl]-3-bromo-pyrazolo[3,4-d]pyrimidin-6-yl]amino]-N,1-dimethyl-cyclopentane-carboxamide] the figure was 25 to 200 nM; with `CNC(=O)[C@]1(C)CC[C@@H](Nc2ncc3c(Br)nn(-c4ccc(-c5cnon5)cc4)c3n2)C1` [(1R,3R)-3-[[3-bromo-1-[4-(1,2,5-oxadiazol-3-yl)phenyl]pyrazolo[3,4-d]pyrimidin-6-yl]amino]-N,1-dimethyl-cyclopentane-carboxamide], 25 to 200 nM; with `Cc1nnc(-c2ccc(-n3nc(Br)c4cnc(N[C@@H]5CC[C@@](C)(C(=O)N6CCOCC6)C5)nc43)cc2)s1` [[(1R,3R)-3-[[3-bromo-1-[4-(5-methyl-1,3,4-thiadiazol-2-yl)phenyl]pyrazolo[3,4-d]pyrimidin-6-yl]amino]-1-methyl-cyclopentyl]-morpholino-methanone], 25 to 200 nM.
As to `CNC(=O)[C@]1(C)CC[C@@H](Nc2ncc3c(Br)nn(-c4ccc(-c5ncco5)c([C@H](C)C#N)c4)c3n2)C1` [(1R,3R)-3-[[3-bromo-1-[3-[(1S)-1-cyanoethyl]-4-oxazol-2-yl-phenyl]pyrazolo[3,4-d]pyrimidin-6-yl]amino]-N,1-dimethyl-cyclopentane-carboxamide], the IC50 under setting [1] fell in the range of 25 to 200 nM.
Consider `O[C@@H]1CCC[C@@H]1Nc1ncc2c(Br)nn(-c3cc(F)c4ncccc4c3)c2n1` [(1R,2S)-2-[[3-bromo-1-(8-fluoro-6-quinolyl)pyrazolo[3,4-d]pyrimidin-6-yl]amino]cyclopentanol], for which the IC50 under setting [1] was 25 to 200 nM.
Same read-out and setting: as for `CNC(=O)[C@]1(C)CC[C@@H](Nc2ncc3c(Br)nn(-c4ccc5[nH]c(=O)ncc5c4)c3n2)C1` [(1R,3R)-3-[[3-bromo-1-(2-oxo-1H-quinazolin-6-yl)pyrazolo[3,4-d]pyrimidin-6-yl]amino]-N,1-dimethyl-cyclopentane-carboxamide; 2,2,2-trifluoroacetic acid], the figure is 25 to 200 nM; as for `CN(C(=O)[C@]1(C)CC[C@@H](Nc2ncc3c(Br)nn(-c4cc(F)c5ncccc5c4)c3n2)C1)C(C)(C)CO` [(1R,3R)-3-[[3-bromo-1-(8-fluoro-6-quinolyl)pyrazolo[3,4-d]pyrimidin-6-yl]amino]-N-(2-hydroxy-1,1-dimethyl-ethyl)-N,1-dimethyl-cyclopentanecarboxamide], below 25 nM.
Regarding `O=C(NC[C@H]1COCCN1)[C@@H]1CC[C@@H](Nc2ncc3c(Br)nn(-c4ccc5ncccc5c4)c3n2)C1` [(1R,3R)-3-((3-bromo-1-(quinolin-6-yl)-1H-pyrazolo[3,4-d]pyrimidin-6-yl)amino)-N-(((S)-morpholin-3-yl)methyl)cyclopentane-1-carboxamide], the IC50 under setting [1] was 25 to 200 nM.
As to `CNC(=O)[C@]1(C)CC[C@@H](Nc2ncc3c(Br)nn(-c4ccc(-c5nnc(C)s5)c(C#N)c4)c3n2)C1` [Example 69, (1R,3R)-3-((3-bromo-1-(3-cyano-4-(5-methyl-1,3,4-thiadiazol-2-yl)phenyl)-1H-pyrazolo[3,4-d]pyrimidin-6-yl)amino)-N,1-dimethylcyclopentane-1-carboxamide], the IC50 (GCN2 biochemical IC50, 4 nM GCN2, 2 μM ATP, 80 nM GFP-eIF2α, 90 min RT, read-out: GCN2 activity) is below 25 nM.
Turning to `O=C(NCCn1ccnc1)[C@@H]1CC[C@@H](Nc2ncc3c(Br)nn(-c4ccc5ncccc5c4)c3n2)C1` [(1R,3R)-N-(2-(1H-imidazol-1-yl)ethyl)-3-((3-bromo-1-(quinolin-6-yl)-1H-pyrazolo[3,4-d]pyrimidin-6-yl)amino)cyclopentane-1-carboxamide], the IC50 under setting [1] was in the range of 25 to 200 nM.
